pEC50: −log10 of the molar value.
Target: T1, KCNQ2/3 channels (Homo sapiens, UniProt O43525+O43526)
T1 construct: expressed in transfected cells
Experiment: Fluorescence assay using a voltage sensitive dye (fluorimetry)
Format: cell-based
Details: CHO-K1 cells expressing KCNQ2/3 channels; for Emax: relative to retigabine = 100%, read-out: Fluorimetry % efficacy (retigabine = 100%)
Protocol: Method I. Fluorescence Assay Using a Voltage Sensitive Dye (Fluorimetry)
[…] CHO-K1 cells expressing KCNQ2/3 channels are cultivated adherently at 37° C., 5% CO2 and 95% humidity in cell culture bottles (e.g. 80 cm^2 TC flasks, Nunc) with DMEM-high glucose (Sigma Aldrich, D7777) including 10% FCS (PAN Biotech, e.g. 3302-P270521) or alternatively MEM Alpha Medium (1×, liquid, Invitrogen, #22571), 10% fetal calf serum (FCS) (Invitrogen, #10270-106, heat-inactivated) and the necessary selection antibiotics.
Before being sown out for the measurements, the cells are washed with 1×DPBS buffer Ca^2+/Mg^2+-free (e.g. Invitrogen, #14190-094) and detached from the bottom of the culture vessel by using Accutase (PAA Laboratories, #L11-007) (incubation with Accutase for 15 min at 37° C.). The cell number is determined using a CASY™ cell counter (TCC, Schärfe System). Depending on the optimal density for each individual cell line, 20,000-30,000 cells/well/100 μl are seeded onto 96-well Corning™ CellBIND™ assay plates (Flat Clear Bottom Black Polystyrene Microplates, #3340). Freshly seeded cells are then left to settle for one hour at room temperature, followed by incubation for 24 hours at 37° C., 5% CO2 and 95% humidity.
The voltage-sensitive fluorescent dye from the Membrane Potential Assay Kit (Red™ Bulk format part R8123 for FLIPR, MDS Analytical Technologies™) is prepared by dissolving the contents of one vessel Membrane Potential Assay Kit Red Component A in 200 ml of extracellular buffer (ES buffer, 120 mM NaCl, 1 mM KCl, 10 mM HEPES, 2 mM CaCl2, 2 mM MgCl2, 10 mM glucose; pH 7.4). After removal of the nutrient medium, the cells are washed once with 200 μl of ES buffer, then loaded for 45 min at room temperature in 100 μl of dye solution in the dark.
Fluorescence measurements are carried out in a BMG Labtech FLUOstar™, BMG Labtech NOVOstar™ or BMG Labtech POLARstar™ instrument (525 nm excitation, 560 nm emission, Bottom Read mode). After incubation with the dye, 50 μl of the test substances in the desired concentrations, or 50 μl of ES buffer for control purposes, are applied to the wells of the assay plate and incubated for 30 min at room temperature while being shielded from light. The fluorescence intensity of the dye is then measured for 5 min and the fluorescence value F1 of each well is thus determined at a given, constant time. 15 μl of a KCl solution are then added to each well (final concentration of potassium ions 92 mM). The change in fluorescence intensity is subsequently monitored until all the relevant values have been obtained (mainly 5-30 min). At a given time post KCl application, a fluorescence value F2 is determined, in this case at the time of the fluorescence peak.
For calculation, the fluorescence intensity F2 is corrected for the fluorescence intensity F1, and the activity (ΔF/F) of the target compound on the potassium channel is determined as follows:
In order to determine whether a substance has agonistic activity,
[formula] can be related to
[formula] of control wells.
[formula] is determined by adding to the well only the buffer solution instead of the test substance, determining the value F1K of the fluorescence intensity, adding the potassium ions as described above, and measuring a value F2K of the fluorescence intensity. F2K and F1K are then calculated as follows: […]
A substance has an agonistic activity on the potassium channel if
[formula] is greater than
Independently of the comparison of
[formula] it is possible to conclude that a target compound has agonistic activity if
[formula] increases dose dependently. Calculations of EC50 and IC50 values are carried out with the aid of ‘Prism v4.0’ software (GraphPad Software™) Method II. Low-Intensity Tail Flick Test (Rat)

## CCCc1nc2cc(C(F)(F)F)ccc2c(C)c1C(=O)NCc1cccs1 [Example 1, 4-Methyl-2-propyl-N-(thiophen-2-yl-methyl)-7-(trifluoromethyl)-quinoline-3-carboxylic acid amide]
  pEC50: 6.80
  Emax: 140%

## CCCc1nc2cc(C(F)(F)F)ccc2c(C)c1C(=O)NCC1CCCCCC1 [Example 2, N-(Cycloheptyl-methyl)-4-methyl-2-propyl-7-(trifluoromethyl)-quinoline-3-carboxylic acid amide]
  pEC50: 6.49
  Emax: 104%

## CCCc1nc2cc(C(F)(F)F)ccc2c(C)c1C(=O)NCc1cccc(F)c1 [Example 4, N-[(3-Fluorophenyl)-methyl]-4-methyl-2-propyl-7-(trifluoromethyl)-quinoline-3-carboxylic acid amide]
  pEC50: 7.03
  Emax: 138%

## CCc1nc2cc(C(F)(F)F)ccc2c(C)c1C(=O)NCc1ccc(F)cc1 [Example 5, 2-Ethyl-N-[(4-fluorophenyl)-methyl]-4-methyl-7-(trifluoromethyl)-quinoline-3-carboxylic acid amide]
  pEC50: 6.58
  Emax: 157%

## CC(C)c1nc2cc(C(F)(F)F)ccc2cc1C(=O)NCc1cccc(F)c1 [Example 11, N-[(3-Fluorophenyl)-methyl]-2-isopropyl-7-(trifluoromethyl)-quinoline-3-carboxylic acid amide]
  pEC50: 6.61
  Emax: 166%

## CC(C)c1nc2cc(C(F)(F)F)ccc2cc1C(=O)NCc1ccc(F)cc1 [Example 12, N-[(4-Fluorophenyl)-methyl]-2-isopropyl-7-(trifluoromethyl)-quinoline-3-carboxylic acid amide]
  pEC50: 6.82
  Emax: 137%

## CC(C)(C)c1nc2cc(C(F)(F)F)ccc2cc1C(=O)NCc1cccc(F)c1 [Example 13, 2-tert-Butyl-N-[(3-fluorophenyl)-methyl]-7-(trifluoromethyl)-quinoline-3-carboxylic acid amide]
  pEC50: 6.08
  Emax: 125%

## CC(C)(C)c1nc2cc(C(F)(F)F)ccc2cc1C(=O)NCc1ccc(F)cc1 [Example 14, 2-tert-Butyl-N-[(4-fluorophenyl)-methyl]-7-(trifluoromethyl)-quinoline-3-carboxylic acid amide]
  pEC50: 6.13
  Emax: 144%

## Cc1c(C(=O)NCc2cccc(F)c2)c(CO)nc2cc(C(F)(F)F)ccc12 [Example 17, N-[(3-fluorophenyl)-methyl]-2-(hydroxymethyl)-4-methyl-7-(trifluoromethyl)-quinoline-3-carboxylic acid amide]
  pEC50: 5.54
  Emax: 102%

## Cc1c(C(=O)NCc2cccc(F)c2)c(CC(C)(C)C)nc2cc(C(F)(F)F)ccc12 [Example 18, 2-(2,2-dimethyl-propyl)-N-[(3-fluorophenyl)-methyl]-4-methyl-7-(trifluoromethyl)-quinoline-3-carboxylic acid amide]
  pEC50: 7.04
  Emax: 187%

## Cc1c(C(=O)NCc2ccc(F)cc2)c(CC(C)(C)C)nc2cc(C(F)(F)F)ccc12 [Example 19, 2-(2,2-Dimethyl-propyl)-N-[(4-fluorophenyl)-methyl]-4-methyl-7-(trifluoromethyl)-quinoline-3-carboxylic acid amide]
  pEC50: 6.92
  Emax: 149%

## Cc1c(C(=O)NCc2cccc(F)c2)c(C2CCCC2)nc2cc(C(F)(F)F)ccc12 [Example 20, 2-Cyclopentyl-N-[(3-fluorophenyl)-methyl]-4-methyl-7-(trifluoromethyl)-quinoline-3-carboxylic acid amide]
  pEC50: 7.31
  Emax: 185%

## Cc1c(C(=O)NCc2ccc(F)cc2)c(C2CCCC2)nc2cc(C(F)(F)F)ccc12 [Example 21, 2-Cyclopentyl-N-[(4-fluorophenyl)-methyl]-4-methyl-7-(trifluoromethyl)-quinoline-3-carboxylic acid amide]
  pEC50: 6.65
  Emax: 178%

## CCCc1nc2cc(C(F)(F)F)ccc2c(C)c1C(=O)NCCCC(C)(C)C [Example 22, N-(4,4-Dimethyl-pentyl)-4-methyl-2-propyl-7-(trifluoromethyl)-quinoline-3-carboxylic acid amide]
  pEC50: 6.73
  Emax: 277%

## C/C=C/c1nc2cc(C(F)(F)F)ccc2c(C)c1C(=O)NCc1cccc(F)c1 [Example 23, N-[(3-fluorophenyl)-methyl]-4-methyl-2-[(E)-prop-1-enyl]-7-(trifluoromethyl)-quinoline-3-carboxylic acid amide]
  pEC50: 6.35
  Emax: 130%

## CC(C)=Cc1nc2cc(C(F)(F)F)ccc2c(C)c1C(=O)NCc1cccc(F)c1 [Example 24, N-[(3-fluorophenyl)-methyl]-4-methyl-2-(2-methyl-prop-1-enyl)-7-(trifluoromethyl)-quinoline-3-carboxylic acid amide]
  pEC50: 6.79
  Emax: 171%

## Cc1c(C(=O)NCc2cccc(F)c2)c(CN(C)C)nc2cc(C(F)(F)F)ccc12 [Example 31, 2-(dimethylaminomethyl)-N-[(3-fluorophenyl)-methyl]-4-methyl-7-(trifluoromethyl)-quinoline-3-carboxylic acid amide]
  pEC50: 5.73
  Emax: 40%

## CCc1nc2cc(C(F)(F)F)ccc2c(C)c1C(=O)NCc1ccc(F)c(C)c1 [Example 32, 2-Ethyl-N-[(4-fluoro-3-methyl-phenyl)-methyl]-4-methyl-7-(trifluoromethyl)-quinoline-3-carboxylic acid amide]
  pEC50: 6.50
  Emax: 133%

## CCc1nc2cc(C#N)ccc2c(C)c1C(=O)NCc1cccc(F)c1 [Example 33, 7-Cyano-2-ethyl-N-[(3-fluorophenyl)-methyl]-4-methyl-quinoline-3-carboxylic acid amide]
  pEC50: 5.99
  Emax: 121%

## CCc1nc2cc(C(F)(F)F)ccc2c(C)c1C(=O)NCc1ccc(C)c(F)c1 [Example 34, 2-Ethyl-N-[(3-fluoro-4-methyl-phenyl)-methyl]-4-methyl-7-(trifluoromethyl)-quinoline-3-carboxylic acid amide]
  pEC50: 6.51
  Emax: 139%

## CCc1nc2cc(C#N)ccc2c(C)c1C(=O)NCc1ccc(F)cc1 [Example 35, 7-Cyano-2-ethyl-N-[(4-fluorophenyl)-methyl]-4-methyl-quinoline-3-carboxylic acid amide]
  pEC50: 6.24
  Emax: 97%

## Cc1c(C(=O)NCc2cccc(F)c2)c(CC(C)C)nc2cc(C(F)(F)F)ccc12 [Example 36, N-[(3-Fluorophenyl)-methyl]-4-methyl-2-(2-methyl-propyl)-7-(trifluoromethyl)-quinoline-3-carboxylic acid amide]
  pEC50: 7.09
  Emax: 154%

## Cc1c(C(=O)NCc2cccc(F)c2)c(C2CC2)nc2cc(C#N)ccc12 [Example 37, 7-Cyano-2-cyclopropyl-N-[(3-fluorophenyl)-methyl]-4-methyl-quinoline-3-carboxylic acid amide]
  pEC50: 6.97
  Emax: 128%

## Cc1c(C(=O)NCc2ccc(F)cc2)c(C2CC2)nc2cc(C#N)ccc12 [Example 38, 7-cyano-2-cyclopropyl-N-[(4-fluorophenyl)-methyl]-4-methyl-quinoline-3-carboxylic acid amide]
  pEC50: 6.93
  Emax: 122%

## Cc1c(C(=O)NCc2cccc(F)c2)c(C(C)C)nc2cc(C#N)ccc12 [Example 39, 7-Cyano-N-[(3-fluorophenyl)-methyl]-2-isopropyl-4-methyl-quinoline-3-carboxylic acid amide]
  pEC50: 6.67
  Emax: 174%
